For series [1], the target named is m-calpain (derived from porcine kidney) (Sus scrofa, UniProt P43367). The experiment in a line: Measurement of inhibitory activity against m-calpain. The note with it: casein substrate, pH 7.4, 30° C. for 60 minutes; read-out: Enzyme inhibitory activity m-Calpain (IC50). The class given is biochemical.
Procedure: More specifically, 200 μL of a reaction solution containing 0.5 mg/mL casein, 50 mM Tris-HCl buffer (pH 7.4), 20 mM dithiothreitol and 1.0 nmol μ-calpain (derived from human red blood cells, Cosmo Bio Co., Ltd.) or m-calpain (derived from porcine kidney, Cosmo Bio Co., Ltd.) was added to individual 2.5 μL portions of DMSO solution containing a varying concentration of a test sample in a 96-well plate. Then, 50 μL of 20 mM aqueous calcium chloride was added thereto, and reaction was performed at 30° C. for 60 minutes. 100 μL of the reaction solution was transferred to another 96-well plate, and purified water (50 μL) and 50% aqueous solution (100 μL) of Protein Assay Dye Reagent (available from Bio-Rad Laboratories, Inc.; catalogue No. 500-600) were added thereto. […] The absorbance of a reaction mixture prepared in the same manner as mentioned above, except that a DMSO solution containing no sample was used as a control value; and the absorbance of a reaction mixture prepared in the same manner as mentioned above, except that a 1 mM aqueous EDTA solution (50 μL) was used in place of 20 mM aqueous calcium chloride, was used as a blank value.

Each structure is given as a SMILES string.

m-calpain (derived from porcine kidney), sequence (P43367 whole entry): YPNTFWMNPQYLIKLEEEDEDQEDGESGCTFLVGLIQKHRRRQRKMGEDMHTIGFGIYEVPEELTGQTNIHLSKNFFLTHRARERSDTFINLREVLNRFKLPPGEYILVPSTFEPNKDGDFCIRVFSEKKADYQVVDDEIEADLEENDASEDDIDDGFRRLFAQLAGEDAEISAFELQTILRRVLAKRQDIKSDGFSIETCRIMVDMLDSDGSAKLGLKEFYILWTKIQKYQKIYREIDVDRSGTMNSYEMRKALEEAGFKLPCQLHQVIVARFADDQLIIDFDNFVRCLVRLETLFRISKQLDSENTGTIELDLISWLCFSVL
m-calpain (derived from porcine kidney), sequence (P04574 whole entry, further chain): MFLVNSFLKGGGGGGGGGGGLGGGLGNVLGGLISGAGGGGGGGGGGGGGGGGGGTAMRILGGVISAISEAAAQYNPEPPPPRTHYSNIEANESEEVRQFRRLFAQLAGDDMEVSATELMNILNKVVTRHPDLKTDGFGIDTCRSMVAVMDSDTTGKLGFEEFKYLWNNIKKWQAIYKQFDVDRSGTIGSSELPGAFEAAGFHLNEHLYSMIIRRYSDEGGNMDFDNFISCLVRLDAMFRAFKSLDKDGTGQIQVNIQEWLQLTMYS

By melting point is commonly meant the temperature, or range, at which the solid turns liquid. Consider `CCNC(=O)C(=O)[C@H](Cc1ccccc1)NC(=O)[C@H](CC(C)C)NC(=O)OCCOC` [Compound 1, ((1S)-1-((((1S)-1-Benzyl-2,3-dioxo-3-(ethylamino)propyl)amino)carbonyl)-3-methylbutyl) carbamic acid 2-methoxyethyl ester], for which the melting point lay in the range of 138 to 138.3 °C.
Same read-out and setting: under `CCNC(=O)C(=O)[C@H](Cc1ccccc1)NC(=O)[C@H](CC(C)C)NC(=O)O[C@H]1CCOC1` [Compound 2, ((1S)-1-((((1S)-1-Benzyl-2,3-dioxo-3-(ethylamino)propyl)amino)carbonyl)-3-methylbutyl)carbamic acid (3S)-tetrahydrofuran-3-yl ester] stands 158.9 to 160.7 °C; under `CCNC(=O)C(=O)[C@H](Cc1ccccc1)NC(=O)[C@H](CC(C)C)NC(=O)OC1CCOCC1` [Compound 3, ((1S)-1-((((1S)-1-Benzyl-2,3-dioxo-3-(ethylamino)propyl)amino)carbonyl)-3-methylbutyl)carbamic acid tetrahydro-4H-pyran-4-yl ester], 140 to 141.8 °C.
Regarding `COCCOC(=O)N[C@@H](CC(C)C)C(=O)N[C@@H](Cc1ccccc1)C(=O)C(=O)NC1CC1` [Compound 4, ((1S)-1-((((1S)-1-Benzyl-2,3-dioxo-3-(cyclopropylamino)propyl)amino)carbonyl)-3-methylbutyl)carbamic acid 2-methoxyethyl ester], the melting point was in the range of 112.4 to 113.5 °C.
`CC(C)C[C@H](NC(=O)O[C@H]1CCOC1)C(=O)N[C@@H](Cc1ccccc1)C(=O)C(=O)NC1CC1` [Compound 5, ((1S)-1-((((1S)-1-Benzyl-3-(cyclopropylamino)-2,3-dioxopropyl)amino)carbonyl)-3-methylbutyl)carbamic acid (3S)-tetrahydrofuran-3-yl ester] gave a melting point of 169.2 to 170.5 °C.
Same read-out and setting: for `CC(C)C[C@H](NC(=O)OC1CCOCC1)C(=O)N[C@@H](Cc1ccccc1)C(=O)C(=O)NC1CC1` [Compound 6, ((1S)-1-((((1S)-1-Benzyl-3-cyclopropylamino-2,3-dioxopropyl)amino)carbonyl)-3-methylbutyl)carbamic acid tetrahydro-4H-pyran-4-yl ester] the value was 137 to 138.2 °C; for `CCCNC(=O)C(=O)[C@H](Cc1ccccc1)NC(=O)[C@H](CC(C)C)NC(=O)OCCOC` [Compound 7, ((1S)-1-((((1S)-1-Benzyl-2,3-dioxo-3-(propylamino)propyl)amino)carbonyl)-3-methylbutyl) carbamic acid 2-methoxyethyl ester], 108.8 to 109.9 °C; for `COCCOC(=O)N[C@@H](CC(C)C)C(=O)N[C@@H](Cc1ccccc1)C(=O)C(=O)NC1CCC1` [Compound 8, ((1S)-1-((((1S)-1-Benzyl-2,3-dioxo-3-(cyclobutylamino)propyl)amino)carbonyl)-3-methylbutyl) carbamic acid 2-methoxyethyl ester], 114.2 to 115.3 °C.
On the same count and under the same terms, under `CCCCNC(=O)C(=O)[C@H](Cc1ccccc1)NC(=O)[C@H](CC(C)C)NC(=O)OCCOC` [Compound 9, ((1S)-1-((((1S)-1-Benzyl-3-butylamino-2,3-dioxopropyl)amino)carbonyl)-3-methylbutyl) carbamic acid 2-methoxyethyl ester] stands 94 to 95.2 °C; under `COCCOC(=O)N[C@@H](CC(C)C)C(=O)N[C@@H](Cc1ccccc1)C(=O)C(=O)NCC(F)(F)F` [Compound 10, ((1S)-1-((((1S)-1-Benzyl-2,3-dioxo-3-(2,2,2-trifluoroethylamino)propyl)amino)carbonyl)-3-methylbutyl) carbamic acid 2-methoxyethyl ester], 152.5 to 153.9 °C.
`COCCOC(=O)N[C@@H](CC(C)C)C(=O)N[C@@H](Cc1ccccc1)C(=O)C(=O)NC1Cc2ccccc2C1` [Compound 11, ((1S)-1-((((1S)-1-Benzyl-2,3-dioxo-3-(2-indanylamino)propyl)amino)carbonyl)-3-methylbutyl)carbamic acid 2-methoxyethyl ester] came in with a melting point of 141.9 to 143.5 °C.
Same read-out and setting: under `COCCNC(=O)C(=O)[C@H](Cc1ccccc1)NC(=O)[C@H](CC(C)C)NC(=O)OCCOC` [Compound 12, ((1S)-1-((((1S)-1-Benzyl-2,3-dioxo-3-(2-methoxyethylamino)propyl)amino)carbonyl)-3-methylbutyl) carbamic acid 2-methoxyethyl ester] stands 127 to 127.9 °C; under `CCNC(=O)C(=O)[C@H](CCc1ccccc1)NC(=O)[C@H](CC(C)C)NC(=O)OCCOC` [Compound 13, ((1S)-1-((((1S)-2,3-Dioxo-3-ethylamino-1-(phenylethyl)propyl)amino)carbonyl)-3-methylbutyl)carbamic acid 2-methoxyethyl ester], 119.1 to 120.4 °C.
Regarding `CCNC(=O)C(=O)[C@H](CCc1ccccc1)NC(=O)[C@H](CC(C)C)NC(=O)O[C@H]1CCOC1` [Compound 14, ((1S)-1-((((1S)-2,3-Dioxo-3-ethylamino-1-(phenylethyl)propyl)amino)carbonyl)-3-methylbutyl)carbamic acid (3S)-tetrahydrofuran-3-yl ester], the melting point lay within 111.9 to 114.5 °C.
Same read-out and setting: for `COCCOC(=O)N[C@@H](CC(C)C)C(=O)N[C@@H](CCc1ccccc1)C(=O)C(=O)NC1CC1` [Compound 15, ((1S)-1-((((1S)-2,3-Dioxo-3-cyclopropylamino-1-(phenylethyl)propyl)amino)carbonyl)-3-methylbutyl)carbamic acid 2-methoxyethyl ester] the value was 109.7 to 111.1 °C; for `CC(C)C[C@H](NC(=O)O[C@H]1CCOC1)C(=O)N[C@@H](CCc1ccccc1)C(=O)C(=O)NC1CC1` [Compound 16], 115.8 to 116.2 °C.
As usually defined, the IC50 is the point on the concentration scale where inhibition reaches its midpoint. Compound `COCCOCCOCCOCCOC(=O)N[C@@H](CC(C)C)C(=O)N[C@@H](Cc1ccccc1)C(=O)C(=O)NC1CC1` [Compound 19, ((1S)-1-((((1S)-1-Benzyl-2,3-dioxo-3-(cyclopropylamino)propyl)amino)carbonyl)-3-methylbutyl)carbamic acid 11-methoxy-3,6,9-trioxaundecanyl ester] returned a melting point of 97.5 to 98.5 °C. For the same compound, in series [1], the half-maximal inhibitory concentration (IC50) was determined as 170 nM.
Regarding `COCCOCCOCCOCCOCCOC(=O)N[C@@H](CC(C)C)C(=O)N[C@@H](Cc1ccccc1)C(=O)C(=O)NC1CC1` [Compound 20, ((1S)-1-((((1S)-1-Benzyl-2,3-dioxo-3-(cyclopropylamino)propyl)amino)carbonyl)-3-methylbutyl)carbamic acid 14-methoxy-3,6,9,12-tetraoxatetradecanyl ester], the melting point lay in the range of 98.5 to 99.9 °C. The IC50 in series [1] was 190 nM.
Regarding `COCCOC(=O)N[C@@H](CC(C)C)C(=O)N[C@@H](CC(C)C)C(=O)C(=O)NCCOc1ccccc1` [Compound 21, ((1S)-1-((((1S)-2,3-Dioxo-1-(2-methylpropyl)-3-(2-phenoxyethyl)aminopropyl)amino)carbonyl)-3-methylbutyl) carbamic acid 2-methoxyethyl ester], the melting point lay in the range of 99.7 to 100.5 °C.
On the same count and under the same terms, for `COCCOCCOC(=O)N[C@@H](CC(C)C)C(=O)N[C@@H](CC(C)C)C(=O)C(=O)NCCOc1ccccc1` [Compound 22, ((1S)-1-((((1S)-2,3-Dioxo-1-(2-methylpropyl)-3-(2-phenoxyethyl)aminopropyl)amino)carbonyl)-3-methylbutyl) carbamic acid 5-methoxy-3-oxapentyl ester] the value was 53.3 to 54.1 °C.

Source of the values: patent US11844776B2, “Composition for treatment and/or prevention of peripheral nerve disorder” (OSAKA CITY UNIVERSITY, priority 2016, dated 2023).
